# Results from US5550148A, “PAF synthesis modulators” (ZymoGenetics, Inc., priority 1995, dated 1996).
# Key:
# [1] = test system: remodeling PAF-acetyltransferase; assay: inhibition of remodeling PAF-acetyltransferase (remodeling pathway of PAF synthesis); type: biochemical
# Excerpt: A second screening assay detects modulators of the formation of PAF from lyso-PAF and acetyl-CoA by an enzyme termed PAF acetyltransferase. This is the second step in the remodeling pathway of PAF synthesis, described by Wykle, J. Biol. Chem. 255:10256-60, 1980.
# The remodeling pathway of PAF synthesis is the pathway involved in pathological processes, such as inflammation, and particularly in neutrophil-mediated processes. The de novo pathway of PAF synthesis is required for normal physiological functions. Therefore, a desirable, anti-inflammatory, therapeutically effective PAF modulator will down-regulate the remodeling pathway, but will have little or no effect on the de novo pathway of PAF synthesis.
# Briefly, to assay the remodeling pathway acetyl-transferase, […] of […] bovine serum albumin (fatty acid free; Sigma) in PBS (120 mM NaCl, 2.7 mM KCl, 10 mM phosphate buffer, pH 7.4, supplemented with 10 μM CaCl2) was added to each well of a 96-well, flat-bottom microtiter plate. The plate was incubated for 15 min at ambient temperature, then the wells were aspirated and 50 μl of PBS was added to each well. Duplicate or triplicate test samples in DMSO (≤5% (v/v)) were added to each well.
# HL-60 cells (a stable, transformed hematopoietic cell line) were combined with PBS containing 0.05% TWEEN-20 and mixed vigorously at 500 rpm for 30 sec. This treatment permeabilized the HL-60 cells. An aliquot (50 μl) of HL-60 lysate so formed was added to each well of the plate, and the plate was incubated for 5 min at ambient temperature with gentle shaking.
# PAF acetyl-transferase substrates were added to each well, such that 25 μl of the following solution was added per well: Lyso-PAF ([…]; Calbiochem, La Jolla, Calif.), acetyl-CoA ([…]; Calbiochem), and ^3 H-acetyl-CoA (25 μCi/ml; Amersham). The plate was gently mixed for 45 sec and then incubated at 37° C. for 20 min.
# Newly synthesized PAF was extracted by adding 1.25 mg of AMBERCHROM CG-71 resin (Supelco, Bellefonte, Pa.) in 25 μl of distilled water to each well. The plate was gently shaken for 1 min, following which the resin was collected on a 102 mm×258 mm glass-fiber filter using a MICRO-CELL HARVESTER (Skatron, Waltham, Mass.). The filter was washed with 500 ml water to remove unincorporated ^3 H-acetyl-CoA. Following the wash, the filter was dried in a microwave oven for 5-10 min.
# After the filter was dried, it was soaked in 10 ml of Beta Plate scintillation fluid (LKB, Loughborough, England), and bound counts were determined in a TOP COUNT scintillation counter (Pharmacia). Percentage inhibition was determined by dividing the average of 2 or 3 replicate wells by the average of 3 control wells (5% DMSO alone), and multiplying by 100.
# [2] = test system: de novo PAF-acetyltransferase; assay: inhibition of de novo PAF-acetyltransferase (de novo pathway of PAF synthesis); type: biochemical
# PAF binding sites = PAF binding sites (Homo sapiens, UniProt P25105); assay: displacement of [^3 H]PAF from PAF binding sites; details: 0.01, 0.1, 1 and 10 μM tested, 0.5% DMSO
# Description: (§1) Compound 1494 was assayed for a variety of inhibitory activities. […] Displacement of [^3 H]pyrilamine from histamine H1 binding sites (IC50 of about 3 μM) was noted, but may be unrelated to functional receptor agonism or antagonism. Displacement of [3H]dexamethasone from glucocorticoid binding sites (IC50 of about 3 μM) was also observed. Inhibition of the following activities was also detected: […]
# [3] = biological target: histamine H1 binding sites (Homo sapiens, UniProt P35367); assay: displacement of [^3 H]pyrilamine from histamine H1 binding sites; details: 0.01, 0.1, 1 and 10 μM tested, 0.5% DMSO
# Description: as §1
# [4] = biological target: T1, glucocorticoid binding sites (Homo sapiens, UniProt P04150); assay: displacement of [3H]dexamethasone from glucocorticoid binding sites; details: 0.01, 0.1, 1 and 10 μM tested, 0.5% DMSO
# T1 sequence (P04150 1-777): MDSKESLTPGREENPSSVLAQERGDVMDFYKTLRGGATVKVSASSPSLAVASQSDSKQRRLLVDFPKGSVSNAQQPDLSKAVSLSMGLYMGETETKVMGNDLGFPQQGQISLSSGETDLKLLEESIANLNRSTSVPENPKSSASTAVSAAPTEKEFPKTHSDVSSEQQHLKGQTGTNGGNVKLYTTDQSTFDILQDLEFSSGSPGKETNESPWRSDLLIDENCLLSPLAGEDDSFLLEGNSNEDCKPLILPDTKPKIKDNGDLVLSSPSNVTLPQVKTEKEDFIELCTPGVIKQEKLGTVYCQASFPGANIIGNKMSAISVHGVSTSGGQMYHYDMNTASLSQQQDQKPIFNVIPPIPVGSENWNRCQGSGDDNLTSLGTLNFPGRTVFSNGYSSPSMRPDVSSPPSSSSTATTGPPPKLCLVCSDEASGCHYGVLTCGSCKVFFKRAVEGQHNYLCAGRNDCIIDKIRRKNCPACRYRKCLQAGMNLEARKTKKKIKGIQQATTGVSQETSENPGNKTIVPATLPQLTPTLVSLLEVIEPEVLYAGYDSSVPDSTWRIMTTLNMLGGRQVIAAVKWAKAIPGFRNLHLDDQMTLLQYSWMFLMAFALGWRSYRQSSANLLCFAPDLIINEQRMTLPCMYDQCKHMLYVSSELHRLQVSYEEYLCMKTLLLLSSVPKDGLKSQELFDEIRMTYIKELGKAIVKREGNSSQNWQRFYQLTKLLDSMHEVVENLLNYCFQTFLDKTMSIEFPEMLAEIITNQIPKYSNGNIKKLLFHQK
# Description: as §1
# EGF tyrosine kinase = EGF tyrosine kinase (Homo sapiens, UniProt P00533); assay: inhibition of EGF tyrosine kinase; type: biochemical; details: 0.5% DMSO
# Description: as §1
# P56^lck tyrosine kinase = P56^lck tyrosine kinase (Homo sapiens, UniProt P06239); assay: inhibition of P56^lck tyrosine kinase; type: biochemical; details: 0.5% DMSO
# Description: as §1
# P59^fyn tyrosine kinase = P59^fyn tyrosine kinase (Homo sapiens, UniProt P06241); assay: inhibition of P59^fyn tyrosine kinase; type: biochemical; details: 0.5% DMSO
# Description: as §1
# 5-lipoxygenase = biological target: T2, 5-lipoxygenase (Homo sapiens, UniProt P09917); assay: inhibition of 5-lipoxygenase; type: biochemical; details: 0.5% DMSO
# T2 sequence (P09917 1-674): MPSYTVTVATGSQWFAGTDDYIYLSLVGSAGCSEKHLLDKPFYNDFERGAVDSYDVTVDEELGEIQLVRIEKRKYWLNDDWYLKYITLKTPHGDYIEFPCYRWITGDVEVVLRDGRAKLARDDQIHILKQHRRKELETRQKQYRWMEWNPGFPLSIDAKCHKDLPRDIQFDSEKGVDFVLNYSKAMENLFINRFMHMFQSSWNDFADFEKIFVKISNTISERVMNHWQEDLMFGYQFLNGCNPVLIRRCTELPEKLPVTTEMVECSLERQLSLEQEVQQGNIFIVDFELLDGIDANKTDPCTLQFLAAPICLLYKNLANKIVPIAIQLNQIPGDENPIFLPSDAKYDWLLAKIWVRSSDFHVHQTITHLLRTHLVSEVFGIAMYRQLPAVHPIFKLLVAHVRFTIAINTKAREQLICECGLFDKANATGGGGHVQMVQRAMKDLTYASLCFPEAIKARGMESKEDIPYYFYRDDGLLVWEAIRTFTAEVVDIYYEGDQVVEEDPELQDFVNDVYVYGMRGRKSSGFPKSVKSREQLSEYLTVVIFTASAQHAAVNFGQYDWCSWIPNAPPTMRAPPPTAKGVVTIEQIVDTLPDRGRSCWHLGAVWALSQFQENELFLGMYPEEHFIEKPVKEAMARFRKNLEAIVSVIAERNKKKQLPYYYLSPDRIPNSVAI
# Description: as §1
# Phospholipase A2 = assay: inhibition of Phospholipase A2; type: biochemical; details: 0.5% DMSO
# Description: as §1
# Cyclooxygenase = assay: inhibition of Cyclooxygenase; type: biochemical; details: 0.5% DMSO
# Description: as §1
# B cell = B cell proliferation in the presence of LPS; type: cell-based
# T cell = T cell proliferation in the presence of ConA; type: cell-based
# solubility in 0.5% DMSO = type: physicochemical; details: at 0.01, 0.1, 1 and 10 μM
# P59^fyn tyrosine kinase, sequence (P06241 whole entry): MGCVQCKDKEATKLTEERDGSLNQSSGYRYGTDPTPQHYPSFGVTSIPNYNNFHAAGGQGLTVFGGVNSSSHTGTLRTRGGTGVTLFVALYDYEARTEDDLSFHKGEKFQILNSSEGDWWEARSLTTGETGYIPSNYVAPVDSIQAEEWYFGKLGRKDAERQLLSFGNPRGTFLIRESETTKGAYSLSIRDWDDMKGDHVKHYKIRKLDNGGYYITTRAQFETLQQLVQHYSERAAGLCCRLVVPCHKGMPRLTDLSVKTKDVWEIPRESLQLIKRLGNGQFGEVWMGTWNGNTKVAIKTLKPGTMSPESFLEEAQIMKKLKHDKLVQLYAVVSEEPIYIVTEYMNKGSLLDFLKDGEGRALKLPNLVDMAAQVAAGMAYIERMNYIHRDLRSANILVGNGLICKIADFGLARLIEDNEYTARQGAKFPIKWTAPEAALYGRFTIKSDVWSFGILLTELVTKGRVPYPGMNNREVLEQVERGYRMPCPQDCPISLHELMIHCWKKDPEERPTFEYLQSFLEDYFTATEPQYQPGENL
# PAF binding sites, sequence (P25105 whole entry): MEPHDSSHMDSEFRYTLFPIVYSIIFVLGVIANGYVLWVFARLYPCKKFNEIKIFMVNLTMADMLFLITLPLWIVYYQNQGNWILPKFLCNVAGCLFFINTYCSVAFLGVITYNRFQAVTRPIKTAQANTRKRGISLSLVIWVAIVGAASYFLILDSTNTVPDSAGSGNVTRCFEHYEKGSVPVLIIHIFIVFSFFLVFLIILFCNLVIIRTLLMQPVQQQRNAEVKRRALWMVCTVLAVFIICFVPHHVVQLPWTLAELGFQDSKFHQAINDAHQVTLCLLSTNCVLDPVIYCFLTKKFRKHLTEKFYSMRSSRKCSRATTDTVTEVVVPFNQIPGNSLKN
# histamine H1 binding sites, sequence (P35367 whole entry): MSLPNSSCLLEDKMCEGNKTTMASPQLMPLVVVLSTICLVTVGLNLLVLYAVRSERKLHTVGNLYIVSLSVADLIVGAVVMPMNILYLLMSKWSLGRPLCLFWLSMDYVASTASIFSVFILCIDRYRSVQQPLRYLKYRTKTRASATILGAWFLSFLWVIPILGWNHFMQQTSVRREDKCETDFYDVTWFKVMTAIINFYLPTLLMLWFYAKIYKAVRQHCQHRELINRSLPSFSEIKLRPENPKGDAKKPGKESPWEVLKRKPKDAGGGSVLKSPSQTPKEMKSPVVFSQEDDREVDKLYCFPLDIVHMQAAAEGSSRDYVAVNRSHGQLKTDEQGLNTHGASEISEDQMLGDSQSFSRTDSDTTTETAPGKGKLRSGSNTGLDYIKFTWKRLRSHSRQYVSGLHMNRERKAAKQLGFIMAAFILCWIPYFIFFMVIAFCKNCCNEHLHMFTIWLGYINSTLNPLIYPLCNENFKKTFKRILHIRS
# EGF tyrosine kinase, sequence (P00533 25-1210): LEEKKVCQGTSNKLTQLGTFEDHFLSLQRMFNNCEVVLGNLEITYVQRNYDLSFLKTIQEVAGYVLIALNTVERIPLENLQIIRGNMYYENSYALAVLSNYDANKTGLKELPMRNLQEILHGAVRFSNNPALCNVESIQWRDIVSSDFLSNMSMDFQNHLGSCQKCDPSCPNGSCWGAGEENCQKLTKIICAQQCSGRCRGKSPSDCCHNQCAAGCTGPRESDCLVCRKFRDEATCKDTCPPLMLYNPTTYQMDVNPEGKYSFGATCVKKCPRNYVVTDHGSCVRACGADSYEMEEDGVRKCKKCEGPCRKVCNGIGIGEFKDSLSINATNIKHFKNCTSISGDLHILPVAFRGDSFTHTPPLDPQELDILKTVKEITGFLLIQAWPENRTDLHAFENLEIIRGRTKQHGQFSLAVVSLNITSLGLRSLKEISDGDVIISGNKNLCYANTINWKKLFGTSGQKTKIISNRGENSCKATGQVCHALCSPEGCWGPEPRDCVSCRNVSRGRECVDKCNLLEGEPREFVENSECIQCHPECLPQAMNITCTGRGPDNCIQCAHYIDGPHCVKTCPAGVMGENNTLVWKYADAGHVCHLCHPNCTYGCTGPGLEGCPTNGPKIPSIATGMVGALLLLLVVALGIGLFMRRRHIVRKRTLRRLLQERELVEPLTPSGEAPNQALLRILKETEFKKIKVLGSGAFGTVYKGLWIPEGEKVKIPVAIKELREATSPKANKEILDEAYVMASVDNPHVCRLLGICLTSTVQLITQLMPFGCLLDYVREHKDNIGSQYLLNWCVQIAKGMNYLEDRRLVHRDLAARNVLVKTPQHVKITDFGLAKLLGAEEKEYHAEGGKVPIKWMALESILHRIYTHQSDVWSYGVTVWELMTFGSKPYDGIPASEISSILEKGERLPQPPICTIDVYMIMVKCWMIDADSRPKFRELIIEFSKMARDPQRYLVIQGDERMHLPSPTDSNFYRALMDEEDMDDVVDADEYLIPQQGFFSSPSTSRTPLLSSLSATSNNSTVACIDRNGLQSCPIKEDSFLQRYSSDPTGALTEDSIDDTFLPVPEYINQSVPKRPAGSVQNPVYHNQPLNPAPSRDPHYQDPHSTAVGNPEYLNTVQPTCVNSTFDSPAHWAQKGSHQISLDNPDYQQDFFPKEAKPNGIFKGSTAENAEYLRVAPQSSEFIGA
# P56^lck tyrosine kinase, sequence (P06239 whole entry): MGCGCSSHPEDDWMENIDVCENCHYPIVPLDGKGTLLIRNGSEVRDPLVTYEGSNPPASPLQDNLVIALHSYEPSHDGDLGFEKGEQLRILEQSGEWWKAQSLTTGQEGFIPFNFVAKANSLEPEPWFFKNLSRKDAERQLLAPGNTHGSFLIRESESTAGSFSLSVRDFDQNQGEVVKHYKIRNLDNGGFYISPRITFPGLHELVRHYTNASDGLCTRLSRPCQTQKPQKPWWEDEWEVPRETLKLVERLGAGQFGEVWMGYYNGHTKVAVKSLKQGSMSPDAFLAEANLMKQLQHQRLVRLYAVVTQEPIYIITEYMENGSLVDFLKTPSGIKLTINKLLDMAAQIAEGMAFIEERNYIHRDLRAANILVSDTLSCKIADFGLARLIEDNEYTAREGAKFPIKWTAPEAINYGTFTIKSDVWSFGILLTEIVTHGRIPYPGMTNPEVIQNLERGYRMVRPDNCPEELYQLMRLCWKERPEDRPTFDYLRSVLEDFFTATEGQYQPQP
SMILES,inhibition of remodeling PAF-acetyltransferase ([1]; 0.1 μg/well),inhibition of remodeling PAF-acetyltransferase ([1]; 8.3 μg/well),inhibition of remodeling PAF-acetyltransferase ([1]; 25 μg/well),selectivity for the remodeling pathway of PAF synthesis ([1]; versus de novo PAF-acetyltransferase),inhibition of de novo PAF-acetyltransferase ([2]; 0.1 to 8.3 μg/well),IC50 (PAF binding sites),IC50 [3],IC50 [4],IC50 (EGF tyrosine kinase),IC50 (P56^lck tyrosine kinase),IC50 (P59^fyn tyrosine kinase),IC50 (5-lipoxygenase),IC50 (Phospholipase A2),IC50 (Cyclooxygenase),B cell proliferation (B cell),T cell proliferation (T cell),solubility (solubility in 0.5% DMSO),inhibition of remodeling PAF-acetyltransferase ([1]; 0.9 to 0.1 μg/well),inhibition of de novo PAF-acetyltransferase ([2]; 0.1 to 25 μg/well)
CCC(C)C=C(C)C1C(C)=CC2(C)CC(C)CCC2C1C(=O)C1=CC(O)(Cc2ccc(O)cc2)NC1=O (centres unmarked) [Compound 1494],about 12%,about 71%,about 65%,selective modulator of the remodeling pathway of PAF synthesis,no significant inhibition,~3 µM,~3 µM,~3 µM,~3 µM,~3 µM,~3 µM,~10 µM,~100 µM,~300 µM,stimulated B cell proliferation,T cell proliferation,partial solubility,–,–
CCC(C)C=C(C)C1C(C)=CC2(C)CC(C)CC(C)C2C1C(=O)C1=CC(O)(Cc2ccc(O)cc2)NC1=O (centres unmarked) [Compound 2158],–,–,59%,–,–,–,–,–,–,–,–,–,–,–,–,–,–,0%,No significant inhibition
